Measured values published in ChEMBL document CHEMBL1140612, “4-Methyl-1,2,3-selenadiazole-5-carboxylic acid amides: antitumor action and cytotoxic effect correlation” (Eur J Med Chem, 2007).
Converted amounts (≈) assume the structure as drawn. The source made the active and inactive calls. No cut-off for these calls is given here.

Columns and labels:
HT-1080 [1] = assay: Cytotoxicity against human HT1080 cells after 72 hrs; assay type: functional; settings: for CC50: HT-1080, 72 h, read-out: TD50 (the source's name)
MG-22A [2] = assay: Cytotoxicity against mouse MG22A cells after 72 hrs; assay type: functional; settings: read-out: TD50 (the source's name)
[3] = Cytotoxicity against mouse NIH3T3 cells after 72 hrs; assay type: cell-based; settings: read-out: TD50
HT-1080 [4] = assay: Effect on nitric oxide production in human HT1080 cells at 100 ug/ml by crystal violet coloration assay; assay type: functional
MG-22A [5] = assay: Effect on nitric oxide production in mouse MG22A cells at 100 ug/ml by crystal violet coloration assay; assay type: functional
HT-1080 [6] = assay: Effect on cell morphology in human HT1080 cells after 72 hrs; assay type: functional, cell-based
CCRF S-180 [7] = assay: Antitumor activity against S180 cells inoculated in ICR mouse assessed as inhibition of tumor growth at 10 mg/kg, ip after 8 days; assay type: functional; settings: CCRF S-180, ip, 192 h, route intraperitoneal
Mus musculus [8] = assay: Toxicity in ICR mouse assessed as body weight at 10 mg/kg, ip after 8 days; assay type: organism-based; set-up: dose 10 mg/kg, route intraperitoneal; settings: in vivo, 192 h
CCRF S-180 [9] = assay: Antitumor activity against S180 cells inoculated in ICR mouse assessed as inhibition of tumor growth at 10 mg/kg, ip after 9 days; assay type: functional; settings: for inhibition in vivo at 10 mg/kg: CCRF S-180, ip, 216 h, route intraperitoneal
Mus musculus [10] = assay: Toxicity in ICR mouse assessed as body weight at 10 mg/kg, ip after 9 days; assay type: organism-based; set-up: dose 10 mg/kg, route intraperitoneal; settings: in vivo, 216 h
MG-22A [11] = assay: Induction of apoptosis in mouse MG22A cells after 72 hrs; assay type: functional, cell-based
HT-1080 [12] = assay: Induction of apoptosis in human HT1080 cells after 72 hrs; assay type: functional, cell-based
CCRF S-180 [13] = assay: Antitumor activity against S180 cells inoculated in ICR mouse assessed as inhibition of tumor growth at 2 mg/kg, ip after 2 days; assay type: functional; settings: CCRF S-180, ip, 48 h, route intraperitoneal
Mus musculus [14] = assay: Toxicity in ICR mouse assessed as body weight at 2 mg/kg, ip after 2 days; assay type: organism-based; set-up: dose 2 mg/kg, route intraperitoneal; settings: in vivo, 48 h

| SMILES | CC50 (HT-1080 [1]) | CC50 (MG-22A [2]) | CC50 at 72 h [3] | Activity (HT-1080 [4]) | Activity (MG-22A [5]) | Activity (HT-1080 [6]) | inhibition in vivo at 10 mg/kg (CCRF S-180 [7]) | Activity (Mus musculus [8]) | inhibition in vivo at 10 mg/kg (CCRF S-180 [9]) | Activity (Mus musculus [10]) | Activity (HT-1080 [1]) | Activity (CCRF S-180 [9]) | Activity (MG-22A [11]) | Activity (HT-1080 [12]) | inhibition in vivo at 2 mg/kg (CCRF S-180 [13]) | Activity (Mus musculus [14]) |
| --- | --- | --- | --- | --- | --- | --- | --- | --- | --- | --- | --- | --- | --- | --- | --- | --- |
| Cc1nn[se]c1C(=O)N[C@@H](C)c1ccccc1 | 31 µg/mL (≈ 105 µM) | 32 µg/mL (≈ 109 µM) | 407 µg/mL (≈ 1380 µM) | 300% | 200% | Active | -23% | 0% | – | – | – | – | – | – | – | – |
| Cc1nn[se]c1C(=O)N1CCCCC1 | 31 µg/mL (≈ 120 µM) | 27 µg/mL (≈ 105 µM) | 123 µg/mL (≈ 476 µM) | 100% | 400% | – | – | – | 71% | 8% | – | – | – | – | – | – |
| Cc1nn[se]c1C(=O)N1CCOCC1 | – | 34 µg/mL (≈ 131 µM) | 280 µg/mL (≈ 1080 µM) | 11% | 250% | – | – | – | – | 8% | Not toxic | Non-toxic | – | – | – | – |
| Cc1nn[se]c1C(=O)N(C(C)C)C(C)C | – | 31 µg/mL (≈ 113 µM) | 718 µg/mL (≈ 2620 µM) | 29% | 200% | – | – | – | -32% | 0% | Not toxic | – | – | – | – | – |
| Cc1nn[se]c1C(=O)N[C@H](C)c1ccccc1 | 100 µg/mL (≈ 340 µM) | 29 µg/mL (≈ 98.6 µM) | 195 µg/mL (≈ 663 µM) | 17% | 400% | inactive | – | – | 20% | 3% | – | – | – | – | – | – |
| Cc1nn[se]c1C(=O)N1CCCC1 | 19 µg/mL (≈ 77.8 µM) | 33 µg/mL (≈ 135 µM) | 214 µg/mL (≈ 876 µM) | 350% | 350% | – | – | – | 85% | 23% | – | – | Active | – | – | – |
| Cc1nn[se]c1C(=O)N(C)C | – | 35 µg/mL (≈ 160 µM) | 351 µg/mL (≈ 1610 µM) | 10% | 63% | – | – | – | – | – | Not toxic | – | Active | Active | 58% | 17% |
